Drawing on US7655677B2, “Composition and method for controlling house insect pest” (priority 2002, dated 2010), this text covers mortality, Mortality and Controlling effect for 8 molecules.

What all share (assay type): in vivo
In series [1] the test system is Reticulitermes speratus. In words: Test Example 6: treated filter paper in acrylic cup, termite mortality after 7 days. As to conditions: 168 h. The procedure: (§1) A filter paper having a diameter of 80 mm was placed in a cylindrical cup made of acrylic resin having a diameter of 80 mm and a height of 60 mm (i.e. a cup having a hole with a diameter of 10 mm formed in the bottom and having hard plaster (Dental Stone) set at the bottom in a thickness of 10 mm), and 1 ml of a solution containing a sample compound in a predetermined concentration, was dropped thereon. Then, ten termite workers and one termite soldier (Reticulitermes speratus) were released thereon. The cup was placed in a container having wet cotton laid over the bottom, and the container was maintained at room temperature of 25° C. for 7 days, whereupon the mortality of termites in the cup was examined.

For series [2], the system named is Coptotermes formosanus. In words: Test Example 5: treated filter paper in acrylic cup, termite mortality after 7 days. The following applies: 168 h. On the procedure: as §1, with “nine” for “ten”, “(Coptotermes formosanus)” for “(Reticulitermes speratus)”
The test system of another series is Priplaneta americana. The series can be described thus: Test Example 12: mouse feed poison bait, mortality with time. The following applies: bait 1%. The procedure: 1 g of feeding stuff for mice was treated with 0.5 ml of an acetone solution containing 10 mg of a sample compound and put in a constant temperature chamber at 40° C. for 20 hours to sufficiently evaporate acetone, whereby a poison bait chemical containing 1% of the sample compound was prepared. Then, this poison bait chemical was put into a cup together with a wet cotton, and 10 […] (Priplaneta americana) were released and kept at 25° C. in a breeding room, whereby the mortality was examined as the time passed.

The subject of series [3] is Coptotermes formosanus. The series can be described thus: Test Example 24: treated filter paper in Petri dish, termite mortality on 21st or 28th day. The procedure:
(§2) Mortality (%)=(Number of dead termite workers/15 termite workers)×100
(§3) Further, by the Colby's formula, the theoretical value (%) of mortality can be calculated. In a case where the actual mortality (%) is higher than the theoretical value (%), it can be said that the composition of the present invention has a synergistic effect for controlling the house insect pest.
A filter paper having a diameter of 80 mm was placed in a plastic Petri dish, and 1 ml of a pesticide solution having a predetermined concentration was dropped thereon, whereupon 10 termite workers (Coptotermes formosanus) were released, and a cover was put on the Petri dish. This plastic Petri dish was put in a container having wet cotton laid over the bottom and maintained at room temperature of 25° C. On 21 or 28th day after the treatment, the number of dead termites in the Petri dish was examined, and the mortality was calculated in the same manner as Test Example 1.

Another series relates to Lasius japonicus. The series can be described thus: Test Example 11: powdered skim milk poison bait, controlling effect on ants 4 days later. The following applies: bait concentration 1%. The procedure: 1 g of powdered skim milk was treated with 1 ml of an acetone solution containing 10 mg of a sample compound and put in a constant temperature chamber at 40° C. for 20 hours to sufficiently evaporate acetone. In this manner, a poison bait chemical containing 1% of an active ingredient compound, was prepared. Then, this poison bait chemical was put into a cup together with a wet cotton, and 15 ants (Lasius japonicus) were released. 4 Days later, the mortality was examined. Here, when the mortality 4 days later was at least 40%, the controlling effect was rated to be positive.

Series [4] deals with Reticulitermes speratus. The series can be described thus: Test Example 9: treated filter paper in acrylic cup, termite mortality 5 and 20 days later. The following applies: 1000 ppm. The procedure:
as §1, with “C., and 5 days later and 20 days later,” for “C. for 7 days, whereupon”

In series [5] the test system is Reticulitermes speratus. In words: Test Example 2: treated filter paper in Petri dish, termite mortality after 17 days. As to conditions: 408 h. The procedure: as §2, §3
(§4) A filter paper having a diameter of 80 mm was placed in a plastic Petri dish, and 1 ml of a pesticide solution having a predetermined concentration, was dropped thereon. After the treatment, the solvent was sufficiently evaporated and then, 1 ml of distilled water was impregnated to the treated filter paper, whereupon 15 termite workers and one termite soldier (Reticulitermes speratus) were released. The plastic Petri dish was placed in a container having wet cotton laid over the bottom, and the container was maintained at 25° C. for 17 days. Then, the number of dead termites in the Petri dish was examined, and the mortality was calculated in the same manner as in Test Example 1.

For series [6], the system named is Reticulitermes speratus. In words: Test Example 1: treated filter paper in Petri dish, termite mortality after 13 days. The following applies: 312 h. On the procedure:
as §4, with “predetermined concentration” for “predetermined concentration,”, “sufficiently evaporated,” for “sufficiently evaporated”, “for 13 days, whereupon” for “for 17 days. Then,”, “calculated by” for “calculated in”, “the following formula.” for “the same manner as in Test Example 1.”
as §2, §3

Series [7] has as its system Reticulitermes speratus. The series can be described thus: Test Example 3: treated filter paper in Petri dish, termite mortality after 37 days. The following applies: Reticulitermes speratus, 888 h. The procedure:
as §2, §3
as §4, with “evaporated,” for “evaporated”, “10” for “15”, “workers” for “workers and one termite soldier”, “37 days, whereupon” for “17 days. Then,”

As for `CCOP(=S)(OCC)Oc1nc(Cl)c(Cl)cc1Cl` [Chlorpyrifos, reference compound], the mortality at 1000 ppm in the series on Reticulitermes speratus [1] and in the series on Coptotermes formosanus [2] was 100% throughout. Moreover, the mortality at 500 ppm in the series on Coptotermes formosanus [2] was 100%. For the same molecule, the Mortality in the series with Priplaneta americana (1 Day later), in the series on Priplaneta americana (8 Days later) and with Priplaneta americana (48 Days later) was 100% throughout.
Regarding `Cc1c(COC(=O)[C@@H]2[C@H](/C=C(\Cl)C(F)(F)F)C2(C)C)cccc1-c1ccccc1` (racemic) [Bifenthrin], in the series with Coptotermes formosanus [3] (Bifenthrin 0.25 ppm alone, 28th day), the Mortality was 0%. For the same molecule, in the series on Coptotermes formosanus [3] (Coptotermes formosanus), the mortality at 0.25 ppm was 0%, the mortality at 0.5 ppm is 10% and the mortality at 1 ppm was determined as 40%.
Turning to `CC(=NN=C(Cc1ccc(C(C)(C)C)cc1)c1ccc(C)cc1)N(C)C` [Compound No. II-6, [4′-methyl-2-(4-tert-butylphenyl)acetophenone]N′-[1-(dimethylamino)ethylidene]hydrazone], the Controlling effect result in the series with Lasius japonicus was “Positive (when the mortality 4 days later was at least 40%, the controlling effect was rated to be positive)”. Besides, the Mortality was 70% in the series on Reticulitermes speratus [4] (5 Days later) and 100% in the series on Reticulitermes speratus [4] (20 Days later).
As for `CCOC(=O)NN=C(Cc1ccc(C(F)(F)F)cc1)c1ccc(Cl)cc1` [Compound No. II-3], the Mortality is on record as 0% in the series with Priplaneta americana (1 Day later); 100% in the series on Priplaneta americana (8 Days later); 100% in the series on Priplaneta americana (48 Days later); 0% with Reticulitermes speratus [4] (5 Days later); 100% in the series with Reticulitermes speratus [4] (20 Days later).
With `O=C(NC(=O)c1c(F)cccc1F)Nc1cc(Cl)c(OC(F)(F)C(F)F)c(Cl)c1` [Hexaflumuron], in the series on Reticulitermes speratus [5], the mortality at 1000 ppm is 40%, the mortality at 2000 ppm is 40%, the mortality at 4000 ppm was found to be 20% and the mortality at 8000 ppm was found to be 33%.
`O=C(NC(=O)c1c(F)cccc1F)Nc1cc(Cl)c(Oc2ncc(C(F)(F)F)cc2Cl)c(Cl)c1` [Chlorfluazuron]: the mortality at 500 ppm with Coptotermes formosanus [3] (Coptotermes formosanus) was 20%; in the series with Reticulitermes speratus [7] (Chlorfluazuron 500 ppm alone), 30%. Also, the mortality at 1000 ppm was determined as 30% with Coptotermes formosanus [3] (Coptotermes formosanus), 0% with Reticulitermes speratus [6] and 50% in the series with Reticulitermes speratus [7] (Chlorfluazuron 1000 ppm alone). The mortality at 2000 ppm in the series with Coptotermes formosanus [3] (Coptotermes formosanus) is 30%; with Reticulitermes speratus [6], 33%; in the series on Reticulitermes speratus [7] (Chlorfluazuron 2000 ppm alone), 50%. In addition, the values for the mortality at 4000 ppm in the series on Reticulitermes speratus [6] and in the series with Reticulitermes speratus [7] (Chlorfluazuron 4000 ppm alone) were 53% and 50%, respectively. The mortality at 8000 ppm in the series on Reticulitermes speratus [6] was 60%.
With `CC(=NN=C(Cc1ccc(C(F)(F)F)cc1)c1ccc(Cl)cc1)N(C)C` [Compound No. II-1, [4′-chloro-2-(4-trifluoromethylphenyl)acetophenone]N′-[1-(dimethylamino)ethylidene]hydrazone], the Mortality in the series on Reticulitermes speratus [4] (5 Days later) came to 0%; with Reticulitermes speratus [4] (20 Days later), 100%.
The corresponding values for `CC(N)=NN=C(Cc1ccc(C(F)(F)F)cc1)c1ccc(Cl)cc1` [Compound No. II-7, [4′-chloro-2-(4-trifluoromethylphenyl)acetophenone]N′-[1-aminoethylidene]hydrazone] are 100% and 100%.
